According to ChEMBL document CHEMBL2202954, “The effect of PLC-γ2 inhibitors on the growth of human tumour cells” (2012):

Assays:
Assay type in all cases: functional
[1] = tested on: HCC 2998; assay: Cytotoxicity against human HCC2998 cells assessed as cellular growth at 10 uM by SRB assay
[2] = tested on: SK-MEL-28; assay: Cytotoxicity against human SK-MEL-28 cells assessed as cellular growth at 10 uM by SRB assay
[3] = tested on: ACHN; assay: Cytotoxicity against human ACHN cells assessed as cellular growth at 10 uM by SRB assay
[4] = tested on: HOP-62; assay: Cytotoxicity against human HOP62 cells assessed as cellular growth at 10 uM by SRB assay
[5] = tested on: LOX IMVI; assay: Cytotoxicity against human LOXIMVI cells assessed as cellular growth at 10 uM by SRB assay
[6] = tested on: SF-268; assay: Cytotoxicity against human SF268 cells assessed as cellular growth at 10 uM by SRB assay
[7] = tested on: UACC-257; assay: Cytotoxicity against human UACC257 cells assessed as cellular growth at 10 uM by SRB assay
[8] = tested on: A549; assay: Cytotoxicity against human A549 cells assessed as cellular growth at 10 uM by SRB assay
[9] = tested on: NCI-H460; assay: Cytotoxicity against human NCI-H460 cells assessed as cellular growth at 10 uM by SRB assay
[10] = tested on: PC-3; assay: Cytotoxicity against human PC3 cells assessed as cellular growth at 10 uM by SRB assay
[11] = tested on: OVCAR-8; assay: Cytotoxicity against human OVCAR8 cells assessed as cellular growth at 10 uM by SRB assay
[12] = Cytotoxicity against human NCI-ADR-RES cells assessed as cellular growth at 10 uM by SRB assay
[13] = tested on: MCF7; assay: Cytotoxicity against human MCF7 cells assessed as cellular growth at 10 uM by SRB assay
[14] = tested on: SW-620; assay: Cytotoxicity against human SW620 cells assessed as cellular growth at 10 uM by SRB assay
[15] = tested on: TK-10; assay: Cytotoxicity against human TK10 cells assessed as cellular growth at 10 uM by SRB assay
[16] = tested on: RPMI-8226; assay: Cytotoxicity against human RPMI8226 cells assessed as cellular growth at 10 uM by SRB assay
[17] = tested on: K562; assay: Cytotoxicity against human K562 cells assessed as cellular growth at 10 uM by SRB assay
[18] = tested on: M14; assay: Cytotoxicity against human M14 cells assessed as cellular growth at 10 uM by SRB assay
[19] = tested on: NCI-H322M; assay: Cytotoxicity against human NCI-H322M cells assessed as cellular growth at 10 uM by SRB assay
[20] = tested on: U-251; assay: Cytotoxicity against human U251 cells assessed as cellular growth at 10 uM by SRB assay

| SMILES | Activity [1] | Activity [2] | Activity [3] | Activity [4] | Activity [5] | Activity [6] | Activity [7] | Activity [8] | Activity [9] | Activity [10] | Activity [11] | Activity [12] | Activity [13] | Activity [14] | Activity [15] | Activity [16] | Activity [17] | Activity [18] | Activity [19] | Activity [20] |
| --- | --- | --- | --- | --- | --- | --- | --- | --- | --- | --- | --- | --- | --- | --- | --- | --- | --- | --- | --- | --- |
| N#Cc1ccc(NC(=O)c2sc3nc4c(cc3c2N)C(=O)CCC4)cc1 | 99.15% | 105.89% | 107.57% | 100.94% | 111.96% | 102.29% | 105.99% | 92.54% | 85.91% | 106.64% | 104.55% | 105.72% | 97.4% | 98.14% | 65.94% | 95.69% | 108.42% | 105.98% | 102.55% | 106.08% |
| O=C(Nc1ccc2oc(=O)ccc2c1)c1ccc(-c2ccc(Br)cc2)o1 | 112.96% | 119.2% | 121.66% | 106.69% | 105.3% | 106.9% | 114.76% | 100.63% | 100.9% | 111.02% | 101.05% | 101.15% | 98.67% | 107.9% | 102.05% | 108.92% | 95.77% | 114.52% | 154.44% | 98.16% |
| Nc1c(C(=O)Nc2cccc(Cl)c2)sc2nc3c(cc12)C(=O)CCC3 | 8.27% | 51.4% | 54.19% | 47.04% | 46.08% | 63.09% | 68.88% | 28.25% | 10.27% | 29.1% | 75.34% | 17.69% | 16.68% | 31.28% | 64.95% | 51.81% | 22.78% | 26.93% | 71.82% | 46.41% |
| Nc1c(C(=O)Nc2ccccc2F)sc2nc3c(cc12)C(=O)CCC3 | 43.8% | 64.11% | 65.41% | 42.7% | 54.2% | 54.87% | 66.94% | 22.02% | 11.41% | 23.38% | 58.62% | -4.39% | 22.91% | 30% | 59.66% | 52.02% | 26.33% | 19.18% | 68.76% | 31.63% |
| Cc1ccc2c(c1)N/C(=C/C(=O)c1ccc(Cl)cc1)C(=O)O2 | 108.44% | 116.13% | 103.68% | 113.93% | 100.45% | 105.3% | 97.03% | 92.75% | 109.79% | 87.2% | 101.66% | 104% | 87.54% | 114.93% | 131.96% | 64.3% | 99.7% | 108.88% | 114.58% | 100.94% |
| COc1ccc2nc(NC(=O)c3ccc(F)cc3)sc2c1 | 87.56% | 110.86% | 88.79% | 108.23% | 102.03% | 106.57% | 97.45% | 47.59% | 19.56% | 88.31% | 94.61% | 89.25% | 70.13% | 101.19% | 98.88% | 87.06% | 82.42% | 106.56% | 75.75% | 98.75% |
| COc1cc(/C=c2/sc3nc4ccccc4n3c2=O)cc(I)c1O | 106.16% | 111.82% | 107.3% | 101.47% | 93.01% | 99.48% | 105.01% | 88.66% | 95.07% | 95.27% | 97.39% | 92.89% | 93.11% | 93.08% | 116.5% | 74.12% | 51.46% | 107.28% | 109.21% | 101.21% |
| O=c1/c(=C/c2ccccc2Cl)sc2nc(-c3ccccc3)nn12 | 104.88% | 109.04% | 97.57% | 103.3% | 63.33% | 91.24% | 85.66% | 87.55% | 99.8% | 72.09% | 97.99% | 90.47% | 91.04% | 107.46% | 123.92% | 50.72% | 48.93% | 76.15% | 96.56% | 89.87% |
| O=C(NCc1cccnc1)c1sc2cc([N+](=O)[O-])ccc2c1Cl | 104.9% | 110.01% | 106.03% | 97.3% | 102.15% | 99.64% | 92.34% | 91.87% | 106.27% | 101.92% | 96.34% | 95.58% | 92.75% | 96.99% | 122.07% | 94.49% | 93.09% | 108.24% | 101.48% | 90.3% |
| CC1(C)CC(=O)c2cc3c(N)c(C(=O)Nc4ccccc4Cl)sc3nc2C1 | 107.92% | 116.26% | 114.15% | 116.65% | 117.15% | 122.6% | 104.02% | 102.64% | 113.94% | 105.8% | 109.63% | 115.33% | 111.34% | 108.49% | 106.14% | 108.32% | 96.43% | 118.29% | 131.48% | 102.37% |
| Cc1ccc(C(=O)/C=C2/Nc3ccc(C)cc3OC2=O)cc1 | 102.74% | 118.66% | 104.27% | 115.04% | 104.53% | 110.95% | 103.75% | 105.68% | 117.71% | 101.93% | 102.51% | 108.28% | 96.32% | 120.18% | 135.06% | 56.86% | 95.07% | 106.88% | 106.47% | 108.93% |
| Cc1ccc(CNC(=O)c2[nH]c3ccccc3c2Cl)cc1 | 101.22% | 113.18% | 112.34% | 90.94% | 97.73% | 86.83% | 101.14% | 96.66% | 88.87% | 93.19% | 99.35% | 92.34% | 98.84% | 89.73% | 124.52% | 101.73% | 100.85% | 115.09% | 111.04% | 92.16% |
| Cc1ccc(S(=O)(=O)Oc2ccc(-c3cnc4ccccc4n3)cc2)cc1 | 102.2% | 113.2% | 102.63% | 114.36% | 99.82% | 118.59% | 102.87% | 95.53% | 97% | 90.9% | 96.94% | 101.39% | 98.34% | 103.63% | 98.17% | 88.46% | 84.2% | 123.34% | 113.67% | 89.92% |
